Reference: PMC11940764 (2025)

Key:
poly(A) (RNA, polymer) A = assay: fluorescence titration, site-independent model; details: TE buffer (Tris-HCl 10 mM, EDTA 1 mM) pH 8.0; dye 1 µM; unit not given
[1] = tested on: poly(A)·poly(U) (RNA, polymer) A/U; assay: fluorescence titration; CD (exciton-coupled ICD); details: fluorescence: TE buffer pH 8.0, dye 1 µM; CD: phosphate buffer 10 mM pH 7.5; no Kb given

Kb (poly(A) (RNA, polymer) A): 9.5 × 10^6 | binding [1]: yes
Structure (SMILES): COc1cc2c(/C=C3/Sc4ccccc4N3C)cc[n+](C)c2cc1OC
